This is an account of results in patent US20230114728A1 (Venatorx Pharmaceuticals, Inc., priority 2019, published 2023).

The test system of the assay is N. gonorrhoeae WHO L. Kind of assay: Liquid broth MIC in Fastidious broth. In kind it is cell-based. Conditions: Neisseria gonorrhoeae; N. gonorrhoeae strain WHO L; Fastidious broth; read-out: Minimum Inhibitory Concentration, N. gonorrhoeae WHO L. The essentials: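 Colonies were swabbed from chocolate agar after 24 h growth and standardised by optical density at 600 nm. Compounds were serially diluted twofold in Fastidious broth, and bacteria added to give 5×10^5 CFU/mL. After about 24 h at 36 °C in 5% CO2, the lowest concentration allowing under 10% growth was taken as MIC.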
With `NC1(CN2CCN(C(=O)N[C@@H](C(=O)N[C@H]3Cc4ccc(F)c(C(=O)O)c4OB3O)c3cc(F)c(O)c(O)c3Cl)C(=O)C2=O)CC1` (single isomer, unassigned) [Example 133], the MIC is greater than 64 µg/mL. Consider `NC1(CN2CCN(C(=O)N[C@@H](C(=O)N[C@H]3Cc4ccc(F)c(C(=O)O)c4OB3O)c3c(F)cc(O)c(O)c3Cl)C(=O)C2=O)CC1` (single isomer, unassigned) [Example 134], for which the MIC is greater than 64 µg/mL. Take `NCCN1CCN(C(=O)N[C@@H](C(=O)N[C@H]2Cc3ccc(F)c(C(=O)O)c3OB2O)c2cc(F)c(O)c(O)c2Cl)C(=O)C1=O` (single isomer, unassigned) [Example 179]: the MIC is greater than 64 µg/mL. For `NCCCN1CCN(C(=O)N[C@@H](C(=O)N[C@H]2Cc3ccc(F)c(C(=O)O)c3OB2O)c2cc(F)c(O)c(O)c2Cl)C(=O)C1=O` (single isomer, unassigned) [Example 180], the MIC was greater than 64 µg/mL. Regarding `C[C@@H](O)[C@@H](NC(=O)N1CCN(CCNC(=O)c2c(F)cc(O)c(O)c2Cl)C(=O)C1=O)C(=O)N[C@H]1Cc2ccc(F)c(C(=O)O)c2OB1O` [Example 102, (R)-3-((2R,3R)-2-(4-(2-(2-chloro-6-fluoro-3,4-dihydroxybenzamido)ethyl)-2,3-dioxopiperazine-1-carboxamido)-3-hydroxybutanamido)-7-fluoro-2-hydroxy-3,4-dihydro-2H-benzo[e][1,2]oxaborinine-8-carboxylic acid], the MIC was greater than 64 µg/mL. Take `NS(=O)(=O)Nc1cccc(C(NC(=O)N2CCN(Cc3c(F)cc(O)c(O)c3Cl)C(=O)C2=O)C(=O)N[C@H]2Cc3cccc(C(=O)O)c3OB2O)c1` (stereo partly drawn) [Example 131, (3R)-3-(2-(4-(2-chloro-6-fluoro-3,4-dihydroxybenzyl)-2,3-dioxopiperazine-1-carboxamido)-2-(3-(sulfamoylamino)phenyl)acetamido)-2-hydroxy-3,4-dihydro-2H-benzo[e][1,2]oxaborinine-8-carboxylic acid]: the MIC is greater than 64 µg/mL. Turning to `NS(=O)(=O)c1cc(O)cc(C(NC(=O)N2CCN(Cc3c(F)cc(O)c(O)c3Cl)C(=O)C2=O)C(=O)N[C@H]2Cc3cccc(C(=O)O)c3OB2O)c1` (stereo partly drawn) [Example 132, (3R)-3-(2-(4-(2-chloro-6-fluoro-3,4-dihydroxybenzyl)-2,3-dioxopiperazine-1-carboxamido)-2-(3-hydroxy-5-sulfamoylphenyl)acetamido)-2-hydroxy-3,4-dihydro-2H-benzo[e][1,2]oxaborinine-8-carboxylic acid], the MIC was greater than 64 µg/mL.
